Holding throughout (experiment): microbe, parasite or virus in culture
For assay [1], the system named is Human immunodeficiency virus 1. The following applies: Human immunodeficiency virus 1, 3B, MT4, 96 h.
Assay [2] relates to Human immunodeficiency virus 1. The following applies: Human immunodeficiency virus 1, 3B, CEM-SS, 144 h.
For assay [3], the system named is Human immunodeficiency virus 1. The following applies: Human immunodeficiency virus 1, LAI, CEM-4.
Assay [4] has as its system Hepatitis C virus. The following applies: Huh-7.
Assay [5] concerns Hepatitis C virus. The following applies: Huh-7. The source holds these as a separate data set.
The subject of assay [6] is Hepatitis C virus. The following applies: Huh-7, 72 h.
Assay [7] deals with Hepatitis C virus.
For assay [8], the system named is Hepatitis C virus. The following applies: 16 h.
Assay [9] deals with Hepatitis C virus. The following applies: genotype 2b.
Assay [10] relates to Hepatitis C virus. The following applies: Huh-5-2, 72 h.
The test system of assay [11] is Human immunodeficiency virus 1. The following applies: Human immunodeficiency virus 1, 3B, MT4.

Square brackets hold non-standard residues; d marks the D form. Peptide text beside a SMILES is read from it. MeBmt = C/C=C/C[C@@H](C)[C@@H](O)[C@H](NC)C(=O)O; NEtVal = CCN[C@H](C(=O)O)C(C)C; NMeL = CN[C@@H](CC(C)C)C(=O)O; NMeV = CN[C@H](C(=O)O)C(C)C; dHiv = CC(C)[C@@H](O)C(=O)O; dNMeA = CN[C@H](C)C(=O)O; Abu = CC[C@H](N)C(=O)O

`C/C=C/C[C@@H](C)[C@@H](O)[C@H]1C(=O)N[C@@H](CC)C(=O)N(C)CC(=O)N(C)[C@@H](CC(C)(C)O)C(=O)N[C@@H](C(C)C)C(=O)N(C)[C@@H](CC(C)C)C(=O)N[C@@H](C)C(=O)N[C@H](C)C(=O)N(C)[C@@H](CC(C)C)C(=O)N(C)[C@@H](CC(C)C)C(=O)N(C)[C@@H](C(C)C)C(=O)N1C` showed an EC50 in [1] of 279 nM. The same measure, in the same setting: then `C/C=C/C[C@@H](C)[C@@H](O)[C@H]1C(=O)N[C@@H](CC)C(=O)N(C)CC(=O)N(C)[C@@H](C(C)C)C(=O)N[C@@H](C(C)C)C(=O)N(C)[C@@H](CC(C)C)C(=O)N[C@@H](C)C(=O)N[C@H](C)C(=O)N(C)[C@@H](CC(C)C)C(=O)N(C)[C@@H](CC(C)C)C(=O)N(C)[C@@H](C(C)C)C(=O)N1C`, with 54 nM.

Regarding `C/C=C/C[C@@H](C)[C@@H](O)[C@H]1C(=O)N[C@@H](CC)C(=O)N(C)C(OC(C)=O)C(=O)N(C)[C@@H](CC(C)C)C(=O)N[C@@H](C(C)C)C(=O)N(C)[C@@H](CC(C)C)C(=O)N[C@@H](C)C(=O)N[C@H](C)C(=O)N(C)[C@@H](CC(C)C)C(=O)N(C)[C@@H](CC(C)C)C(=O)N(C)[C@@H](C(C)C)C(=O)N1C` (stereo partly specified), the IC50 in [2] was determined as 119 nM.

In assay [2], `C/C=C/C[C@@H](C)[C@@H](OC(C)=O)[C@H]1C(=O)N[C@@H](CC)C(=O)N(C)C(OC(C)=O)C(=O)N(C)[C@@H](CC(C)C)C(=O)N[C@@H](C(C)C)C(=O)N(C)[C@@H](CC(C)C)C(=O)N[C@@H](C)C(=O)N[C@H](C)C(=O)N(C)[C@@H](CC(C)C)C(=O)N(C)[C@@H](CC(C)C)C(=O)N(C)[C@@H](C(C)C)C(=O)N1C` (stereo partly specified) returned an IC50 of 115 nM. In [1], `CC[C@@H]1NC(=O)[C@H]([C@H](O)[C@H](C)C/C=C/CO)N(C)C(=O)[C@H](C(C)C)N(C)C(=O)[C@H](CC(C)C)N(C)C(=O)[C@H](CC(C)C)N(C)C(=O)[C@@H](C)NC(=O)[C@H](C)NC(=O)[C@H](CC(C)C)N(C)C(=O)[C@H](C(C)C)NC(=O)[C@H](CC(C)C)N(C)C(=O)CN(C)C1=O` registered an EC50 of 460 nM. This counts as sub-micromolar. `C/C=C/C[C@@H](C)[C@@H](O)[C@H]1C(=O)N[C@@H](CC)C(=O)N(C)[C@H](SCCN(CC)CC)C(=O)N(C)[C@@H](CC(C)C)C(=O)N[C@@H](C(C)C)C(=O)N(C)[C@@H](CC(C)C)C(=O)N[C@@H](C)C(=O)N[C@H](C)C(=O)N(C)[C@@H](CC(C)C)C(=O)N(C)[C@@H](CC(C)C)C(=O)N(C)[C@@H](C(C)C)C(=O)N1C`: the EC50 in [3] turned out to be 2.5 nM. The molecule `C/C=C/C[C@@H](C)[C@@H](O)[C@H]1C(=O)N[C@@H](CC)C(=O)N(C)[C@@H](CSCCN2CCOCC2)C(=O)N(C)[C@@H](CC(C)(C)O)C(=O)N[C@@H](C(C)C)C(=O)N(C)[C@@H](CC(C)C)C(=O)N[C@@H](C)C(=O)N[C@H](C)C(=O)N(C)[C@@H](CC(C)C)C(=O)N(C)[C@@H](CC(C)C)C(=O)N(C)[C@@H](C(C)C)C(=O)N1C` registered an EC50 in assay [2] of 94.9 nM. Still for that read-out and setting: then `C/C=C/C[C@@H](C)[C@@H](O)[C@H]1C(=O)N[C@@H](CC)C(=O)N(C)[C@H](OC)C(=O)N(C)[C@@H](CC(C)(C)O)C(=O)N[C@@H](C(C)C)C(=O)N(C)[C@@H](CC(C)C)C(=O)N[C@@H](C)C(=O)N[C@H](C)C(=O)N(C)[C@@H](CC(C)C)C(=O)N(C)[C@@H](CC(C)C)C(=O)N(C)[C@@H](C(C)C)C(=O)N1C`, with 60 nM. As for `C/C=C/C[C@@H](C)[C@@H](O)[C@H]1C(=O)N[C@@H](CC)C(=O)N(C)CC(=O)N(C)[C@@H](CC(C)C)C(=O)N[C@@H](C(C)C)C(=O)N(C)[C@@H](CC(C)C)C(=O)N[C@@H](C)C(=O)N[C@H](C)C(=O)N(C)[C@@H](CC(C)(C)O)C(=O)N(C)[C@@H](CC(C)C)C(=O)N(C)[C@@H](C(C)C)C(=O)N1C`, in assay [1], the 50% effective concentration (EC50) came out at 255 nM. The molecule `C/C=C/C[C@@H](C)[C@@H](O)[C@H]1C(=O)N[C@@H](CC)C(=O)N(C)[C@H](SCCCN2CCOCC2)C(=O)N(C)[C@@H](CC(C)(C)O)C(=O)N[C@@H](C(C)C)C(=O)N(C)[C@@H](CC(C)C)C(=O)N[C@@H](C)C(=O)N[C@H](C)C(=O)N(C)[C@@H](CC(C)C)C(=O)N(C)[C@@H](CC(C)C)C(=O)N(C)[C@@H](C(C)C)C(=O)N1C` yielded an EC50 in the assay with Hepatitis C virus [4] of 40 nM. `C/C=C/C[C@@H](C)[C@@H](O)[C@H]1C(=O)N[C@@H](CC)C(=O)N(C)[C@@H](CSCCCN2CCOCC2)C(=O)N(C)[C@@H](CC(C)(C)O)C(=O)N[C@@H](C(C)C)C(=O)N(C)[C@@H](CC(C)C)C(=O)N[C@@H](C)C(=O)N[C@H](C)C(=O)N(C)[C@@H](CC(C)C)C(=O)N(C)[C@@H](CC(C)C)C(=O)N(C)[C@@H](C(C)C)C(=O)N1C` returned an EC50 with Hepatitis C virus [5] of 20 nM. This counts as double-digit nanomolar.

On to `C/C=C/C[C@@H](C)[C@@H](O)[C@H]1C(=O)N[C@@H](CC)C(=O)N(C)CC(=O)N(C)[C@@H](CC(C)(C)OCc2ccccc2)C(=O)N[C@@H](C(C)C)C(=O)N(C)[C@@H](CC(C)C)C(=O)N[C@@H](C)C(=O)N[C@H](C)C(=O)N(C)[C@@H](CC(C)C)C(=O)N(C)[C@@H](CC(C)C)C(=O)N(C)[C@@H](C(C)C)C(=O)N1C`, for which, in the assay on Hepatitis C virus [6], the EC50 was 410 nM. With `C/C=C/C[C@@H](C)[C@@H](O)[C@H]1C(=O)N[C@@H](CC)C(=O)N[C@H](C)C(=O)N(C)[C@@H](CC(C)C)C(=O)N(C/C=C(\C)CO)[C@@H](C(C)C)C(=O)N(C)[C@@H](CC(C)C)C(=O)N[C@@H](C)C(=O)N[C@H](C)C(=O)N(C)[C@@H](CC(C)C)C(=O)N(C)[C@@H](CC(C)C)C(=O)N(C)[C@@H](C(C)C)C(=O)N1C`, a half-maximal response with Hepatitis C virus [7] (EC50) required 50 nM. As for `C/C=C/C[C@@H](C)[C@@H](O)[C@H]1C(=O)N[C@@H]([C@@H](C)O)C(=O)N(C)CC(=O)N(C)[C@@H](CC(C)C)C(=O)N[C@@H](C(C)C)C(=O)N(C)[C@@H](CC(C)C)C(=O)N[C@@H](C)C(=O)N[C@H](C)C(=O)N(C)[C@@H](CC(C)CO)C(=O)N(C)[C@@H](CC(C)C)C(=O)N(C)[C@@H](C(C)C)C(=O)N1C` (stereo partly specified), the EC50 in the assay on Hepatitis C virus [8] is less than 3000 nM. As for `C/C=C/C[C@@H](C)[C@@H](O)[C@H]1C(=O)N[C@@H](CC)C(=O)N(C)[C@H](C)C(=O)N(CC)[C@@H](C(C)C)C(=O)N[C@@H](CC(C)C)C(=O)N(C)[C@@H](CC(C)C)C(=O)N[C@@H](C)C(=O)O[C@H](C(C)C)C(=O)N(C)[C@@H](CC(C)C)C(=O)N[C@@H](CC(C)C)C(=O)N(C)[C@@H](C(C)C)C(=O)N1C` (cyclo(A[dHiv][NMeL]L[NMeV][MeBmt][Abu][dNMeA][NEtVal]L[NMeL])), the EC50 in the assay on Hepatitis C virus [9] was found to be 37 nM. That is a double-digit nanomolar value.

In the case of `C/C=C/C[C@@H](C)[C@@H](O)[C@H]1C(=O)N[C@@H](CC)C(=O)N(C)[C@H](C)C(=O)N(CC)[C@@H](C(C)C)C(=O)N[C@@H](C(C)C)C(=O)N(C)[C@@H](CC(C)C)C(=O)N[C@@H](C)C(=O)N[C@H](C)C(=O)N(C)[C@@H](CC(C)C)C(=O)N(C)[C@@H](CC(C)C)C(=O)N(C)[C@@H](C(C)C)C(=O)N1C` [ALISPORIVIR], the EC50 in the assay on Hepatitis C virus [10] was 25 nM; in [11] it was 63 nM. As for `C/C=C/C[C@@H](C)[C@@H](O)[C@H]1C(=O)N[C@@H](CC)C(=O)N(C)CC(=O)N(C)[C@@H](CC(C)C)C(=O)N[C@@H](C(C)C)C(=O)N(C)[C@@H](CC(C)C)C(=O)N[C@@H](C)C(=O)N[C@H](C)C(=O)N(C)[C@@H](CC(C)C)C(=O)N(C)[C@@H](CC(C)C)C(=O)N(C)[C@@H](C(C)C)C(=O)N1C` [CYCLOSPORINE], the EC50 is 450 nM in assay [1] and 230 nM with Hepatitis C virus [7]. Consider `C/C=C/C[C@@H](C)[C@@H](O)[C@H]1C(=O)N[C@@H](CC)C(=O)N(C)CC(=O)N(C)[C@@H]([C@@H](C)CC)C(=O)N[C@@H](C(C)C)C(=O)N(C)[C@@H](CC(C)C)C(=O)N[C@@H](C)C(=O)N[C@H](C)C(=O)N(C)[C@@H](CC(C)C)C(=O)N(C)[C@@H](CC(C)C)C(=O)N(C)[C@@H](C(C)C)C(=O)N1C` [NIM811], for which, in assay [1], the EC50 was 47 nM. This counts as double-digit nanomolar. `C/C=C/C[C@@H](C)[C@@H](O)[C@H]1C(=O)N[C@@H](CC)C(=O)N(C)[C@H](SCCN(C)C)C(=O)N(C)[C@@H](CC(C)(C)O)C(=O)N[C@@H](C(C)C)C(=O)N(C)[C@@H](CC(C)C)C(=O)N[C@@H](C)C(=O)N[C@H](C)C(=O)N(C)[C@@H](CC(C)C)C(=O)N(C)[C@@H](CC(C)C)C(=O)N(C)[C@@H](C(C)C)C(=O)N1C` [SCY 635] returned an EC50 in assay [3] of 45 nM.

Broadly, the EC50 is the concentration at which the effect is half-maximal. Low values mean higher potency in that assay, high ones lower potency in that assay. As usually defined, the IC50 is the concentration that inhibits the measured activity by half.

Source of the values: ChEMBL document CHEMBL2407038, “Cyclophilin inhibitors as antiviral agents” (Bioorg Med Chem Lett, 2013).
